What was measured:
[1] = target: T1, Rat NHE-3 (Rattus norvegicus, UniProt P26433); test: Cell-based assay of NHE-3 activity (persistent inhibition, after washout); details: OK cells with rat NHE-3 gene, 60 min incubation, recovery initiated 40 min after compound washout; read-out: Rat NHE3 pIC50 (persistent) (converted)
T1 construct: expressed in transfected cells; host or cells: Opossum kidney (OK) cells (ATCC), transfected by electroporation
How it was run: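 OK cells transiently expressing rat NHE-3 were exposed to 0-30 μM compound in NaCl-HEPES pH 7.4 for 60 min, then washed free of drug before NH4Cl/BCECF-AM loading and acid-loading in Na+-free choline buffer. Na+-dependent pH recovery rates (mean of ≥2 replicates) gave pIC50.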

[2] = Pharmacokinetic evaluation in bile; assay type: in vivo, Sprague-Dawley rats; details: bile duct cannulated rats, oral gavage, nominal dose 30 mg/kg, bile collected over 24 h, mean of n=3
Description: Bile duct cannulated (BDC) Sprague-Dawley rats were dosed with test compounds by oral gavage and a single aliquot of bile was collected via cannula over the 24 h following dosing. Bile samples were treated with acetonitrile and precipitated proteins were removed by centrifugation. Some compounds required liquid-liquid extraction using MTBE. After centrifugation, samples were diluted as appropriate in mobile phase and analyzed by LC-MS/MS. The concentrations of compounds in bile were determined by interpolation from a standard calibration curve prepared in rat bile from untreated BDC rats. Accurate recovery of quality control samples was confirmed to accept each analytical run. Concentration in bile is reported in nM and represents the mean result from n=3 rats.

[3] = Fecal recovery; assay type: in vivo, Sprague Dawley rats; details: male, Sprague-Dawley, faeces; rat, 1 mg/kg oral gavage, collection time 48 h
Description: Three male Sprague Dawley rats were administered 1 mg/kg test compound by oral gavage. Feces were collected from study animals from 0-48 or 0-72 hours after dosing, dried by lyophilization, and homogenized. Replicate aliquots of 40-60 mg each were subjected to extraction/protein precipitation with 7:1 acetonitrile:water and centrifuged. Supernatants were diluted 1:10 in 50:50 acetonitrile:water prior to analysis by LC-MS/MS. Compound concentrations, determined by interpolation from a standard calibration curve prepared in blank feces matrix, were converted to the percentage of dosed material recovered by taking into account the total collected fecal matter. The percent recovery for each rat was reported as the mean of the calculations from replicate samples. The overall percent recovery (Fecal Recovery [%]) was reported as the mean percent recovery from three rats. Accurate quality control sample recoveries were confirmed in each run, and extraction efficiency was periodically verified.

[4] = Plasma PK; assay type: in vivo, Sprague-Dawley rats; details: Sprague-Dawley; rat plasma, oral gavage, nominal dose 30 mg/kg, mean of n=3, sampling 0.5-4 h
Description: Sprague-Dawley rats (n=3) were dosed with test compounds by oral gavage. Blood was collected at 0.5, 1, 2 and 4 h via retro-orbital bleeds and processed to plasma using K2EDTA as an anticoagulant. Plasma samples were treated with acetonitrile containing an internal standard and precipitated proteins were removed by centrifugation. Supernatants were analyzed by LC-MS/MS and compound concentrations were determined by interpolation from a calibration curve prepared in plasma. Accurate recovery of quality control samples were confirmed to accept each analytical run.

T1 sequence (P26433 29-831): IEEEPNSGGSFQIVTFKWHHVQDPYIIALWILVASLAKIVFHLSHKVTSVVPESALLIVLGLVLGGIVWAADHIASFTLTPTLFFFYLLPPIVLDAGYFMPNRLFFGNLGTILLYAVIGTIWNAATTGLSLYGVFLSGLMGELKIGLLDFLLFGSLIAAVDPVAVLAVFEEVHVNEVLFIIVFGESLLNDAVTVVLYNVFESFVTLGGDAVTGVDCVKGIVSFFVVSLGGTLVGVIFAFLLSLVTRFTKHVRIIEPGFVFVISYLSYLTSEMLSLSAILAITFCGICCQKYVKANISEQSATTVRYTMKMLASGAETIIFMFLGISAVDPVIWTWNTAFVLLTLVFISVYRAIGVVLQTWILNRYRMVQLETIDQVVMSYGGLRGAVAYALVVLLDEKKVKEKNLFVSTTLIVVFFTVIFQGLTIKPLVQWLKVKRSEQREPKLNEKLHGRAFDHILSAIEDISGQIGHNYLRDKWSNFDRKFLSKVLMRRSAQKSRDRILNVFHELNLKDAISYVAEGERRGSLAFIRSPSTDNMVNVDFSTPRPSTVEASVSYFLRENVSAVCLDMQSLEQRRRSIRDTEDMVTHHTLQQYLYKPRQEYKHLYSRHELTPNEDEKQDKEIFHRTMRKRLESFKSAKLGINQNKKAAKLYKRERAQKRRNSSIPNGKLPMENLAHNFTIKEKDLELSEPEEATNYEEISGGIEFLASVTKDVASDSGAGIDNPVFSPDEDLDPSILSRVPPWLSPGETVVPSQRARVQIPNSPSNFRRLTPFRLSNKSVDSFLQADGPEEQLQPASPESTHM

Row | Compound | IC50 [1] | Concentration in Bile [2] | dose excreted [3] | AUC [4] | Cmax [4]
1 | CN1Cc2c(Cl)cc(Cl)cc2[C@H](c2cccc(S(=O)(=O)NCCOCCOCCNC(=O)CCC(N)(CCC(=O)NCCOCCOCCNS(=O)(=O)c3cccc([C@@H]4CN(C)Cc5c(Cl)cc(Cl)cc54)c3)CCC(=O)NCCOCCOCCNS(=O)(=O)c3cccc([C@@H]4CN(C)Cc5c(Cl)cc(Cl)cc54)c3)c2)C1 [Example 2, 4-amino-N^1,N^7-bis(2-(2-(2-(3-((S)-6,8-dichloro-2-methyl-1,2,3,4-tetrahydroisoquinolin-4-yl)phenylsulfonamido)ethoxy)ethoxy)ethyl)-4-(3-(2-(2-(2-(3-((S)-6,8-dichloro-2-methyl-1,2,3,4-tetrahydroisoquinolin-4-yl)phenylsulfonamido)ethoxy)ethoxy)ethylamino)-3-oxopropyl)heptanediamide] | < 0.1 µM | 4 nM | 87% | < 12 ng·h/mL | < 4 ng/mL
2 | CN1Cc2c(Cl)cc(Cl)cc2[C@H](c2cccc(S(=O)(=O)NCCOCCOCCNC(=O)CCC(CCC(=O)NCCOCCOCCNS(=O)(=O)c3cccc([C@@H]4CN(C)Cc5c(Cl)cc(Cl)cc54)c3)(CCC(=O)NCCOCCOCCNS(=O)(=O)c3cccc([C@@H]4CN(C)Cc5c(Cl)cc(Cl)cc54)c3)NC(=O)NCC(=O)O)c2)C1 [Example 7, 18-(3-((S)-6,8-dichloro-2-methyl-1,2,3,4-tetrahydroisoquinolin-4-yl)phenylsulfonamido)-6,6-bis(3-(2-(2-(2-(3-((S)-6,8-dichloro-2-methyl-1,2,3,4-tetrahydroisoquinolin-4-yl)phenylsulfonamido)ethoxy)ethoxy)ethylamino)-3-oxopropyl)-4,9-dioxo-13,16-dioxa-3,5,10-triazaoctadecan-1-oic acid] | < 0.1 µM | 19 nM | 83.2% | < 8 ng·h/mL | < 2 ng/mL
